From patent publication US10798941B2, “Microbiocidal oxadiazole derivatives” (SYNGENTA PARTICIPATIONS AG, priority 2016, dated 2020)

Tests used:
[1] = test system: Puccinia recondita f. Sp. Tritici; test: Puccinia recondita f. sp. tritici / wheat / leaf disc preventative (brown rust); format: in vivo; conditions: foliar, 168 h, 200 ppm in the applied formulation, wheat leaf segments cv. Kanzler, preventative, inoculated 1 day after application, assessed 7 to 9 days after application, vs untreated, read-out: disease control
Outline: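 Wheat cv. Kanzler leaf segments on agar were sprayed with formulated compound in water, then inoculated with spores 1 day later. Incubated at 19° C, 75% rh, 12 h light/12 h dark; percent disease control versus untreated scored 7 to 9 days after application.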

[2] = test system: Phakopsora pachyrhizi; test: Phakopsora pachyrhizi / soybean / leaf disc preventative (Asian soybean rust); format: in vivo; conditions: foliar, 288 h, 200 ppm in the applied formulation, soybean leaf disks, inoculated one day after application, assessed 12 to 14 days after application, vs untreated, read-out: disease control
Outline: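 Read-out is percent disease control relative to untreated check discs, assessed once untreated discs show adequate disease, 12 to 14 days after application. Compounds, tested at 200 ppm in the applied formulation, are sprayed onto soybean leaf discs one day before inoculation with a spore suspension.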

[3] = test system: Puccinia recondita f. Sp. Tritici; test: Puccinia recondita f. sp. tritici / wheat / leaf disc curative (brown rust); format: in vivo; conditions: foliar, 144 h, 200 ppm in the applied formulation, wheat leaf segments cv. Kanzler, applied 1 day after inoculation, assessed 6 to 8 days after application, vs untreated, read-out: disease control
Outline: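 Wheat cv. Kanzler leaf segments on agar were inoculated with fungal spore suspension, held dark at 19° C and 75% RH, then sprayed 1 day later with formulated compound diluted in water. Incubation continued at 19° C, 75% RH, 12 h light/12 h dark; percent disease control versus untreated was scored 6 to 8 days after application.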

[4] = test system: Glomerella Lagenarium (Colletotrichum Lagenarium); test: Glomerella lagenarium (Colletotrichum lagenarium) liquid culture / cucumber / preventative (anthracnose); format: cell-based; conditions: Colletotrichum orbiculare; 20 ppm in the applied formulation; liquid culture in PDB, 24° C., inhibition of growth measured photometrically 3 to 4 days after application, vs untreated; read-out: disease control
Outline: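 Conidia from cryogenic storage were mixed into potato dextrose broth. This was added to compound diluted from DMSO into 0.025% Tween20, tested at 20 ppm. Plates were incubated in the dark at 24 °C and 96% relative humidity, and growth was read photometrically after 2–7 days as % activity versus untreated check.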

CC(C)c1nccn1Cc1ccc(-c2noc(C(F)(F)F)n2)cc1 [Compound 1.56, 3-[4-[(2-isopropylimidazol-1-yl)methyl]phenyl]-5-(trifluoromethyl)-1,2,4-oxadiazole]
≥ 80%: pest or weed control at 200 ppm [1] | pest or weed control at 200 ppm [2] | pest or weed control at 200 ppm [3] | inhibition of growth at 20 ppm [4]

FC(F)(F)c1nc(-c2ccc(Cn3cc4ccccc4n3)cc2)no1 [Compound 1.86, 3-[4-(indazol-2-ylmethyl)phenyl]-5-(trifluoromethyl)-1,2,4-oxadiazole]
≥ 80%: pest or weed control at 200 ppm [1] | pest or weed control at 200 ppm [2] | pest or weed control at 200 ppm [3] | inhibition of growth at 20 ppm [4]

N#CC(c1ccc(-c2noc(C(F)(F)F)n2)cc1)N1CCOCC1 (stereo not drawn) [Compound 1.312, 2-morpholino-2-[4-[5-(trifluoromethyl)-1,2,4-oxadiazol-3-yl]phenyl]acetonitrile]
≥ 80%: pest or weed control at 200 ppm [1] | pest or weed control at 200 ppm [2] | pest or weed control at 200 ppm [3] | inhibition of growth at 20 ppm [4]

N#Cc1cn(Cc2ccc(-c3noc(C(F)(F)F)n3)cc2)cn1 [Compound 1.154, 1-[[4-[5-(trifluoromethyl)-1,2,4-oxadiazol-3-yl]phenyl]methyl]imidazole-4-carbonitrile]
≥ 80%: pest or weed control at 200 ppm [1] | pest or weed control at 200 ppm [2] | pest or weed control at 200 ppm [3] | inhibition of growth at 20 ppm [4]

Fc1cc(-c2noc(C(F)(F)F)n2)ccc1Cn1ccnc1 [Compound 1.129, 3-[3-fluoro-4-(imidazol-1-ylmethyl)phenyl]-5-(trifluoromethyl)-1,2,4-oxadiazole]
≥ 80%: pest or weed control at 200 ppm [1] | pest or weed control at 200 ppm [2] | pest or weed control at 200 ppm [3] | inhibition of growth at 20 ppm [4]

N#Cc1ncnn1Cc1ccc(-c2noc(C(F)(F)F)n2)c(F)c1 [Compound 1.256, 2-[[3-fluoro-4-[5-(trifluoromethyl)-1,2,4-oxadiazol-3-yl]phenyl]methyl]-1,2,4-triazole-3-carbonitrile]
≥ 80%: pest or weed control at 200 ppm [1] | pest or weed control at 200 ppm [2] | pest or weed control at 200 ppm [3] | inhibition of growth at 20 ppm [4]

FC(F)(F)c1nc(-c2ccc(Cn3cnc(-c4ccc(Cl)cc4)c3)cc2)no1 [Compound 1.229, 3-[4-[[4-(4-chlorophenyl)imidazol-1-yl]methyl]phenyl]-5-(trifluoromethyl)-1,2,4-oxadiazole]
≥ 80%: pest or weed control at 200 ppm [1] | pest or weed control at 200 ppm [2] | pest or weed control at 200 ppm [3] | inhibition of growth at 20 ppm [4]

Nc1nc(C(F)(F)F)nn1Cc1ccc(-c2noc(C(F)(F)F)n2)cc1 [Compound 1.200, 5-(trifluoromethyl)-2-[[4-[5-(trifluoromethyl)-1,2,4-oxadiazol-3-yl]phenyl]methyl]-1,2,4-triazol-3-amine]
≥ 80%: pest or weed control at 200 ppm [1] | pest or weed control at 200 ppm [2] | pest or weed control at 200 ppm [3] | inhibition of growth at 20 ppm [4]

COc1nc(Br)n(Cc2ccc(-c3noc(C(F)(F)F)n3)cc2)n1 [Compound 1.232, 3-[4-[(5-bromo-3-methoxy-1,2,4-triazol-1-yl)methyl]phenyl]-5-(trifluoromethyl)-1,2,4-oxadiazole]
≥ 80%: pest or weed control at 200 ppm [1] | pest or weed control at 200 ppm [2] | pest or weed control at 200 ppm [3] | inhibition of growth at 20 ppm [4]

COC(=O)c1cn(Cc2ccc(-c3noc(C(F)(F)F)n3)cc2)cn1 [Compound 1.88, methyl 1-[[4-[5-(trifluoromethyl)-1,2,4-oxadiazol-3-yl]phenyl]methyl]imidazole-4-carboxylate]
≥ 80%: pest or weed control at 200 ppm [1] | pest or weed control at 200 ppm [2] | pest or weed control at 200 ppm [3] | inhibition of growth at 20 ppm [4]

CC1CN(Cc2ccc(-c3noc(C(F)(F)F)n3)cc2)CC(C)O1 (stereo not drawn) [Compound 1.306, 2,6-dimethyl-4-[[4-[5-(trifluoromethyl)-1,2,4-oxadiazol-3-yl]phenyl]methyl]morpholine]
≥ 80%: pest or weed control at 200 ppm [1] | pest or weed control at 200 ppm [2] | pest or weed control at 200 ppm [3] | inhibition of growth at 20 ppm [4]

FC(F)(F)c1nc(-c2ccc(Cn3ncc4ccccc43)cc2)no1 [Compound 1.87, 3-[4-(indazol-1-ylmethyl)phenyl]-5-(trifluoromethyl)-1,2,4-oxadiazole]
≥ 80%: pest or weed control at 200 ppm [1] | pest or weed control at 200 ppm [2] | pest or weed control at 200 ppm [3] | inhibition of growth at 20 ppm [4]

N#Cc1ncn(Cc2ccc(-c3noc(C(F)(F)F)n3)cc2)n1 [Compound 1.40, 1-[[4-[5-(trifluoromethyl)-1,2,4-oxadiazol-3-yl]phenyl]methyl]-1,2,4-triazole-3-carbonitrile]
≥ 80%: pest or weed control at 200 ppm [1] | pest or weed control at 200 ppm [2] | pest or weed control at 200 ppm [3] | inhibition of growth at 20 ppm [4]

COC(=O)c1ncnn1Cc1ccc(-c2noc(C(F)(F)F)n2)cc1 [Compound 1.36, methyl 2-[[4-[5-(trifluoromethyl)-1,2,4-oxadiazol-3-yl]phenyl]methyl]-1,2,4-triazole-3-carboxylate]
≥ 80%: pest or weed control at 200 ppm [1] | pest or weed control at 200 ppm [2] | pest or weed control at 200 ppm [3] | inhibition of growth at 20 ppm [4]

Cc1cc(C)n(C(C)c2ccc(-c3noc(C(F)(F)F)n3)cc2)n1 (stereo not drawn) [Compound 1.303, 3-[4-[1-(3,5-dimethylpyrazol-1-yl)ethyl]phenyl]-5-(trifluoromethyl)-1,2,4-oxadiazole]
≥ 80%: pest or weed control at 200 ppm [1] | pest or weed control at 200 ppm [2] | pest or weed control at 200 ppm [3] | inhibition of growth at 20 ppm [4]

CCSc1ncn(Cc2ccc(-c3noc(C(F)(F)F)n3)cc2)n1 [Compound 1.208, 3-[4-[(3-ethylsulfanyl-1,2,4-triazol-1-yl)methyl]phenyl]-5-(trifluoromethyl)-1,2,4-oxadiazole]
≥ 80%: pest or weed control at 200 ppm [1] | pest or weed control at 200 ppm [2] | pest or weed control at 200 ppm [3] | inhibition of growth at 20 ppm [4]

CCCSc1ncnn1Cc1ccc(-c2noc(C(F)(F)F)n2)cc1 [Compound 1.207, 3-[4-[(5-propylsulfanyl-1,2,4-triazol-1-yl)methyl]phenyl]-5-(trifluoromethyl)-1,2,4-oxadiazole]
≥ 80%: pest or weed control at 200 ppm [1] | pest or weed control at 200 ppm [2] | pest or weed control at 200 ppm [3] | inhibition of growth at 20 ppm [4]

COCc1nn(Cc2ccc(-c3noc(C(F)(F)F)n3)cc2)cc1C(=O)OC [Compound 1.238, methyl 3-(methoxymethyl)-1-[[4-[5-(trifluoromethyl)-1,2,4-oxadiazol-3-yl]phenyl]methyl]pyrazole-4-carboxylate]
≥ 80%: pest or weed control at 200 ppm [1] | pest or weed control at 200 ppm [2] | pest or weed control at 200 ppm [3] | inhibition of growth at 20 ppm [4]

FC(F)(F)c1nc(-c2ccc(Cn3cccc4nnnc3-4)cc2)no1 [Compound 1.244, 3-[4-(triazolo[4,5-b]pyridin-4-ylmethyl)phenyl]-5-(trifluoromethyl)-1,2,4-oxadiazole]
≥ 80%: pest or weed control at 200 ppm [1] | pest or weed control at 200 ppm [2] | pest or weed control at 200 ppm [3] | inhibition of growth at 20 ppm [4]

FC(F)(F)c1nc(-c2ccc(Cn3cnc(Br)c3)nc2)no1 [Compound 1.136, 3-[6-[(4-bromoimidazol-1-yl)methyl]-3-pyridyl]-5-(trifluoromethyl)-1,2,4-oxadiazole]
≥ 80%: pest or weed control at 200 ppm [1] | pest or weed control at 200 ppm [2] | pest or weed control at 200 ppm [3] | inhibition of growth at 20 ppm [4]

O=Cc1ccn(Cc2ccc(-c3noc(C(F)(F)F)n3)cc2)n1 [Compound 1.85, 1-[[4-[5-(trifluoromethyl)-1,2,4-oxadiazol-3-yl]phenyl]methyl]pyrazole-3-carbaldehyde]
≥ 80%: pest or weed control at 200 ppm [1] | pest or weed control at 200 ppm [2] | pest or weed control at 200 ppm [3] | inhibition of growth at 20 ppm [4]

Cc1nc(Br)cn1Cc1ccc(-c2noc(C(F)(F)F)n2)cc1 [Compound 1.91, 3-[4-[(4-bromo-2-methyl-imidazol-1-yl)methyl]phenyl]-5-(trifluoromethyl)-1,2,4-oxadiazole]
≥ 80%: pest or weed control at 200 ppm [1] | pest or weed control at 200 ppm [2] | pest or weed control at 200 ppm [3] | inhibition of growth at 20 ppm [4]

Cc1cc(C)n(Cc2ccc(-c3noc(C(F)(F)F)n3)cc2F)n1 [Compound 1.102, 3-[4-[(3,5-dimethylpyrazol-1-yl)methyl]-3-fluoro-phenyl]-5-(trifluoromethyl)-1,2,4-oxadiazole]
≥ 80%: pest or weed control at 200 ppm [1] | pest or weed control at 200 ppm [2] | pest or weed control at 200 ppm [3] | inhibition of growth at 20 ppm [4]

CC(C)OC(=O)c1cnn(Cc2ccc(-c3noc(C(F)(F)F)n3)cc2)c1 [Compound 1.263, isopropyl 1-[[4-[5-(trifluoromethyl)-1,2,4-oxadiazol-3-yl]phenyl]methyl]pyrazole-4-carboxylate]
≥ 80%: pest or weed control at 200 ppm [1] | pest or weed control at 200 ppm [2] | pest or weed control at 200 ppm [3] | inhibition of growth at 20 ppm [4]
